The text below walks through data of publication PMC12797170, “Potent Competitive Inhibitors of Ecto-5′-nucleotidase (CD73) based on 6‑(Het)aryl-7-deazapurine Ribonucleoside 5′‑O‑Bisphosphonates” (ACS Pharmacology & Translational Science, 2025).

Each structure is given as a SMILES string. pIC50: −log10 of the molar value. ≈ marks a conversion by molar mass, not a printed value. Where two headings read alike, the source gives them in different places. Bounds are passed on as bounds.

Data set [1] is described as follows: Plasma protein binding, mouse plasma. The format is in vitro ADME.
Data set [2] is described as follows: Plasma stability assay, mouse plasma.
Data set [3] is described as follows: In vivo pharmacokinetic study, intravenous. Details: species or system male CD-1 mice. To be noted: for half-life: male, footnote: t1/2 stability in plasma, text: half-life in mouse PK. The gist of the method: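 Single intravenous dose in male CD-1 mice (n=3, 9 weeks, 29.2–33.7 g). Plasma levels measured by LC-MS/MS at 5, 15, 30, 60, 120, 240 and 480 min.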
The nature of data set [4]: Plasma stability assay, human plasma.
Data set [5] concerns the target T1, recombinant human CD73 (hCD73) (Homo sapiens, UniProt P21589).
T1 sequence (P21589 27-574): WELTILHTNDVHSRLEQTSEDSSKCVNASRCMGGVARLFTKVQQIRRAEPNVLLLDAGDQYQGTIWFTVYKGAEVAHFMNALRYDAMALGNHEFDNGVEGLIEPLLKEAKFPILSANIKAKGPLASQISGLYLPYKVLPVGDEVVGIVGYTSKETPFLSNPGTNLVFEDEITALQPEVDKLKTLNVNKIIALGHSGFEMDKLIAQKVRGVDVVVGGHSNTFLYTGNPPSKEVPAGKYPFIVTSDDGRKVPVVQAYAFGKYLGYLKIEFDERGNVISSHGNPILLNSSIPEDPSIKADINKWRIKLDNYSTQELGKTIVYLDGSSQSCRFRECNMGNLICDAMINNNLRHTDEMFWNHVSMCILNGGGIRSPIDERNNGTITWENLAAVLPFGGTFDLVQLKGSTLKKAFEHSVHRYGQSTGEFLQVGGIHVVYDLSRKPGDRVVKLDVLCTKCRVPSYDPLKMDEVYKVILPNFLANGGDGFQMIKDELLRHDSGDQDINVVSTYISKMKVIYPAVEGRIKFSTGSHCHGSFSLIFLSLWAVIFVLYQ
The data set is described as follows: CD73 activity assay on recombinant human CD73. Type of data set: biochemical. Particulars: ΔGexp = RT ln Ki.

For data set [6], the system named is nonmalignant human dermal fibroblasts (NHDF). The data set is described as follows: In vitro cytotoxic activity. The format is cell-based. On the procedure:
(§1) All the compounds were also tested for their in vitro cytotoxic activity on a small panel of four cancer cell lines (CCRF-CEM, HepG2, HeLa S3, HL-60) and nonmalignant human dermal fibroblasts (NHDF).

Another data set deals with HL-60. The experiment in a line: In vitro cytotoxic activity. Type of data set: cell-based. To be noted: Homo sapiens. As for the experimental part: as §1
The test system of the next data set is CCRF-CEM. The experiment in a line: In vitro cytotoxic activity. Type of data set: cell-based. To be noted: Homo sapiens. As for the experimental part: as §1
The subject of a further data set is HepG2. The experiment in a line: In vitro cytotoxic activity. The format is cell-based. To be noted: Homo sapiens. As for the experimental part:
as §1

A further data set relates to HeLa S3. The data set is described as follows: In vitro cytotoxic activity. The format is cell-based. Particulars: Homo sapiens. As for the experimental part: as §1
A short description of data set [7]: Plasma protein binding, equilibrium dialysis, human plasma. The format is in vitro ADME. To be noted: undiluted plasma.
Data set [8] in a line: Kinetic solubility in PBS. Type of data set: physicochemical. Particulars: phosphate-buffered saline, pH 7.4, aqueous buffer, kinetic from dmso stock. In outline: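 Echo-MS quantitation with calibration from 0.05 to 4 μM, after 1:99 dilution of filtrate into 50% acetonitrile. Filtrate came from a 100 μM PBS (pH 7.4) solution equilibrated 2 h at room temperature with shaking, in duplicate.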

The conditions of data set [9]: AB680 literature row of Table 4; cited from earlier work.
Data set [10] can be described thus: in vitro. To be noted: human, plasma.
Data set [11] is described as follows: Microsomal stability assay, human liver microsomes. Type of data set: in vitro ADME. To be noted: for Mics (hu) comp remaining 60 min: 10 μM; for microsomal CLint at 10 µM: pooled liver microsomes, pH 7.4, read-out: Mics (hu) CLint.
Data set [12] is described as follows: in vitro. Particulars: mouse, plasma.
Data set [13] can be described thus: Microsomal stability assay, mouse liver microsomes. The format is in vitro ADME. Particulars: for Mics (m) comp remaining 60 min: 10 μM; for microsomal CLint at 10 µM: pooled liver microsomes, pH 7.4, read-out: Mics (m) CLint. For orientation: Microsomes from liver hold many membrane-bound enzymes, among them those of drug oxidation.
A further data set has as its system CD8+ T cells. The data set is described as follows: CD8+ T cell activation assay (CD25, IFN-γ, granzyme B). Type of data set: cell-based, human. Particulars: 500 nM, separate CD8+ T-cell activation assays. On the procedure:
6 CD73 inhibition partially reverses the immunosuppressive effect of adenosine generated from AMP in CD8 ^ + T cells. CD8^+ T cells were activated using CD3/CD28 activation beads in the presence of 2.5 μM EHNA, with or without 1 mM AMP and CD73 inhibitors (500 nM or 50 nM). A. CD25 expression. The percentage of CD8^+ T cells expressing the activation marker CD25 was measured by flow cytometry 60 h after activation. Data represent technical triplicates. B. Cytokine secretion. Granzyme B and IFN-γ levels in the culture supernatant were quantified by ELISA 60 h after activation. The data represent technical duplicates from two independently treated wells.
Peripheral blood was obtained from healthy donors at the Military University Hospital Prague, following informed consent. CD8+ T cells were enriched using the RosetteSep Human CD8+ T Cell Enrichment Cocktail ([…] Technologies) according to the manufacturer’s instructions and subsequently isolated by density gradient centrifugation using SepMate tubes ([…] Technologies). Residual red blood cells were lysed using a red blood cell lysis buffer (155 mM NH4Cl, 12 mM NaHCO3, 0.1 mM EDTA, pH = 7.1–7.4). The isolated CD8+ T cells were resuspended in complete RPMI and counted using an automated cell counter.
CD8+ T cells were seeded at 5 × 10^4 cells/well in 50 μL of complete RPMI in a flat-bottom 96-well plate. […] This was followed by the addition of 10 μL of a CD73 inhibitor at either 5 μM or 500 nM (experimental wells) or 10 μL of complete RPMI (control wells). Subsequently, 20 μL of 5 mM AMP was added to all wells except those serving as controls for maximal T cell activation. […]
Following incubation, supernatants were collected for quantification of IFN-γ and granzyme B using ELISA. […] Finally, stained cells were washed and analyzed using a BD LSRFortessa flow cytometer. Data were processed and analyzed using FlowJo software (version 10.8.1) and GraphPad Prism 10.
Secretion of IFN-γ and granzyme B was quantified using Human IFN-γ DuoSet ELISA and Human Granzyme B DuoSet ELISA (R&D Systems) according to the manufacturer’s instructions. […]

Data set [14] relates to MDA-MB-231 breast cancer cell line. The experiment in a line: CellTox Green cytotoxicity assay. Particulars: 24 h. The format is cell-based, human. On the procedure: MDA-MB-231 cells were harvested and counted using an automated cell counter. A total of 2,500 cells per well were seeded in 20 μL of phenol red-free complete RPMI medium into black 384-well plates. Five μL of CD73 inhibitors (final concentration: […]) or 5 μL PBS (negative control) were added to each well, except for wells designed as maximal signal (dead cell) controls. Plates were incubated for 24 h at 37 °C in a humidified CO2 incubator. To generate the maximum signal control, 5 μL of lysis buffer (CellTox Green Cytotoxicity Assay, Promega) was added to the dead cell controls, followed by a 30 min incubation at room temperature. Subsequently, 25 μL/well of CellTox Green Dye (diluted 1:500 in the assay buffer; Promega) was added. Plates were incubated in the dark on an orbital shaker at 500–700 rpm for 15 min. Fluorescence was measured using an Infinite M1000 plate reader (Tecan) with excitation at 485–500 nm and emission at 520–530 nm. Data were analyzed in GraphPad Prism 10.
Figure S2: Effect of CD73 inhibition on the viability of CD73-expressing breast cancer cell line. MDA-MB-231 cells were incubated with 10 µM CD73 inhibitors for 24 hours. Viability was assessed using the CellTox™ Green Cytotoxicity Assay.
± s.d. of technical triplicates (s.d., standard deviation).
(1 picture or pasted object on this page, not shown here)

The mark [15] stands for this setting: mouse, plasma, 1 mg/kg, male CD-1 mice, intravenous, single dose, read-out: Cl (obs), observed clearance.
[16] abbreviates: human plasma protein binding, read-out: PPB (hu) (converted).
The mark [17] stands for this setting: mouse, plasma, Tables 2 and 4, mouse plasma, read-out: fup, fraction unbound in mouse plasma.
Setting [18] is: mouse, plasma, mouse plasma protein binding, read-out: PPB (m) (converted).

As for `O=P(O)(O)CP(=O)(O)OC[C@H]1O[C@@H](n2ccc3c(-c4cc5ccccc5c5ccccc45)ncnc32)[C@H](O)[C@@H]1O` [4A.11], the fraction unbound at 4 h, 100 µM was 0.222 in data set [1] (mouse plasma protein binding, read-out: PPB (m) (converted)); 0.31 in data set [7] (Tables 1 and 3, human plasma as printed in footnote, read-out: fup, fraction unbound in human plasma); 0.013 in [7] (setting [16]). Besides, the half-life at 10 µM in [2] and in [4] was over 120 min each time. Also, the clearance entry was “moderate clearance” in data set [3] (in vivo PK in mice, unit not given) and 2 mL/min/kg in [3] (setting [15]). In data set [3] (CD-1, 1 mg/kg, intravenous), this compound displayed a half-life of 99 min. In addition, in data set [5], the “dG_exp, experimental binding free energy” value is recorded as “–13.1 kcal/mol”. The pIC50 (in data set [6]; with HL-60; in the data set with CCRF-CEM; with HepG2; in the data set on HeLa S3) was under 5.00 each time. The compound further had a solubility at 2 h in data set [8] of 68 µM (≈ 39.8 µg/mL).
Consider `C[C@H](Nc1cc(Cl)nc2c1cnn2[C@@H]1O[C@H](COP(=O)(O)CP(=O)(O)O)[C@@H](O)[C@H]1O)c1ccccc1F` [AB680, quemliclustat, reference compound], for which the values for the fraction unbound at 4 h, 100 µM in [1] (setting [17]), in [1] (setting [18]) and in data set [7] (setting [16]) were 0.1, 0.098 and at most 0.01, respectively. Moreover, the “fup, fraction unbound in mouse plasma” value in data set [9] is 0.89. Further, the half-life at 10 µM in “in vitro [10]” and in “in vitro [12]” was over 120 min in each case. For the same compound, the “Mics (hu) comp remaining 60 min” value in data set [11] is reported as 118%. Further, the microsomal CLint at 10 µM in data set [11] and in [13] was under 2 µL/min/mg in each case. Moreover, the “Mics (m) comp remaining 60 min” value in data set [13] is recorded as 117%. In the data set with CD8+ T cells, the “median increase in CD25 expression” value was determined as 41%. The solubility at 2 h in [8] stood at 76 µM (≈ 44.1 µg/mL).
As for `O=P(O)(O)CP(=O)(O)OC[C@H]1O[C@@H](n2ccc3c(-c4cccc5ccccc45)nc(Cl)nc32)[C@H](O)[C@@H]1O` [7B.6], the fraction unbound at 4 h, 100 µM was 0.27 in data set [1] (setting [17]), 0.274 in [1] (setting [18]) and 0.034 in data set [7] (setting [16]). The “in vitro cytotoxicity against MDA-MB-231” value in [14] was “nontoxic”. For the same compound, the half-life at 10 µM in the data set “in vitro [10]” and in the data set “in vitro [12]” was over 120 min in each case. The compound also gave a half-life in data set [3] (CD-1, mouse, plasma, iv, 1 mg/kg, intravenous) of 126 min. In [3] (setting [15]), the clearance stood at 0.73 mL/min/kg. Further, in data set [11], the “Mics (hu) comp remaining 60 min” value is recorded as 96%. For the same compound, the results for the microsomal CLint at 10 µM in data set [11] and in [13] were 1 µL/min/mg and 2 µL/min/mg, respectively. In data set [5], the “dG_exp, experimental binding free energy” value is recorded as “–15.4 kcal/mol”. Further, the pIC50 in data set [6] is under 5.00; in the data set with HL-60, 5.54; with CCRF-CEM, under 5.00; in the data set with HepG2, under 5.00; with HeLa S3 it was under 5.00. In addition, the “Mics (m) comp remaining 60 min” value in data set [13] was 94%. In data set [8], this compound yielded a solubility at 2 h of 92 µM (≈ 52.4 µg/mL).

A word on the half-life: it is how long it takes for the measured level to halve. Higher therefore signals slow decline. Usually clearance stands for the volume of plasma or blood freed of the substance per unit of time. The pIC50 is −log10 of the IC50, conventionally taken in molar units. As usually defined, the solubility is the concentration that dissolves in the medium under given conditions. High values mean a readily soluble substance, low ones a poorly soluble substance.
